Measurements as given in patent publication US6432913B1, “Polypeptide of protein p140 and DNAs encoding it” (Ono Pharmaceutical Co., Ltd., priority 1993, dated 2002).

Columns and labels:
protein p140 [1] = test: Tyrosine phosphorylation of p140 in rat L6 cells (anti-phosphotyrosine recovery, western blot, densitometry); format: cell-based; conditions: for p140 tyrosine phosphorylation (band content of pp140): rat L6 cells, amylin 100 pM 24 hr before insulin where added
Method: (§1) Using the Dubecco's modified Eagle's medium (containing 10% BFS), various cells (1×10^5 cells/dish) were incubated at 37° C. under 5% CO2 atmosphere for 5˜8 days. The cells were skeletal muscle cells differentiated from skeletal muscle myoblasts. The differentiated cells previously treated in serum-free Dulbecco's modified Eagle's medium for 4 hr was incubated with and without amylin (100 pM) before further incubation for 24 hr. Cultures treated with insulin (100 nM) thereafter were incubated for a fixed interval (10 or 60 min). After the cultures were rinsed with ice-cold phosphate buffer, cells were lysed with phosphate buffer containing 0.5% octa (ethylene glycol) ether (C12E8). The pp140 was recovered by sepharobeads bound with phosphothyrosine antibody (Transformation Corp.) prior to elution and detection with phenyl phosphate and western blotting method, respectively. The band content of pp140 was determined by a densitometer using purified pp140 as the standard. In the Table 1, cultures were treated with amylin (100 pM) 24 hr before insulin (100 nM) was added.

protein p140 [2] = test: Tyrosine phosphorylation of p140 in rat FaO hepatocytes; format: cell-based; conditions: for p140 tyrosine phosphorylation (band content of pp140): rat FaO cells, amylin 100 pM 24 hr before insulin where added
Method: as §1

protein p140 [3] = test: Tyrosine phosphorylation of p140 in human A673 muscle cells; format: cell-based; conditions: for p140 tyrosine phosphorylation (band content of pp140): human A 678 cells, amylin 100 pM 24 hr before insulin where added
Method: as §1

protein p140 [4] = test: Tyrosine phosphorylation of p140 in human HepG2 hepatocytes; format: cell-based; conditions: for p140 tyrosine phosphorylation (band content of pp140): human HepG2 cells, amylin 100 pM 24 hr before insulin where added
protein p140 [5] = test: Effects of various test compounds on p140 phosphorylation in rat L6 cells; format: cell-based; parameters: dose or concentration left out as unconfirmed
Method: Rat L6 cells (1×10^5 cells/dish) were incubated in the Dulbecco's modified Eagle's medium (containing 10% BFS) at 37° C. under 5% CO2 atmosphere for 8 days. The cells used were skeletal muscle myoblast-differentiated muscle cells. After treating the differentiated skeletal muscle cells in serum-free Dulbecco's modified Eagle's media for 4 hr, various test compounds (10 mM; except insulin,1 mM) were added before the cultures were further incubated for a fixed interval. After the cultures were rinsed with ice-cold phosphate buffer, cells were lysed with phosphate buffer containing 0.5% octa (ethylene glycol) ether (C12E8). The pp140 was recovered by cephalobeads bound with phosphotyrosine antibody (Transformation Corp.) prior to elution and detection with phenyl phosphate and western blotting method, respectively. The band content of pp140 was determined by a densitometer using purified pp140 as the standard.

Rat L6 cells = test: Enhancement activity on glucose uptake (3H-2-deoxyglucose) in rat L6 cells; format: cell-based; conditions: 2 hr, 5 mM 3H-2-deoxyglucose, initial 3 min
Method: Rat L6 cells (1×10^5 cells/dish) were incubated in Dulbecco's modified Eagle's medium (containing 10% BFS) at 37° C. under 5% C02 atmosphere for 8 days. The cells used were skeletal muscle myoblast-differentiated skeletal muscle cells. After treating the differentiated skeletal muscle cells in serum-free Dulbecco's modified Eagle's medium for 2 hr, various test compounds (10 mM; except insulin,l mM) were added before the cultures were further incubated for a fixed interval of 2 hr. Cultures thereafter treated with Crebs-Ringer phosphate buffer (pH: 7.4) for 20 min were further incubated with 5 mM ^3H-2-deoxyglucose (0.05 mCi/ml). At the initial 3 min after incubation, the uptake radioactivity content in cells was determined with a liquid syntillation counter.

healthy rats = test: Amylin administration to healthy rats for 7 days; format: in vivo, rat; conditions: amylin 0.1 mg/kg, i.p., t.i.d.
Text: (§2) These observations were accompanied by decreases in both incidences, glucose transporter 4 (Glut 4) quantity and synthesized glycogen content (less than 50% decrease compared to that of control group) with 1.7-fold increase in the blood glucose content.

L6 cells = test: Glucose uptake in L6 cells with amylin administration; format: cell-based; conditions: L6 cells of rat skeletal muscle myoblasts
Text: as §2

[6] = test system: streptozotocin (STZ)-induced diabetic rats; test: Effects of vitamin K5 on diabetes in streptozotocin (STZ) rats; format: in vivo, rat; conditions: vitamin K5 i.p. once daily for 3 consecutive days
Method: The diabetes model using streptozotocin (STZ) was established in male Wistar rats (STZ rats). After administering various intraperitoneal (i.p.) daily doses of vitamin K5 for 3 consecutive days in STZ rats (one administration per day), the glucose, neutral fat and cholesterol contents in blood were determined. Accordingly, STZ and normal rats were administered with the vehicle (physiological saline) at identical daily rate and duration prior to determination of similar hematic indices mentioned above. In addition, rats administered subcutaneously (s.c.) with insulin (8 U/kg) daily (one administration per day) for 3 consecutive days were used as positive controls.

Row | Compound | Amount of tyrosine phosphorylated p140 (protein p140 [5]; 0 min) | Amount of tyrosine phosphorylated p140 (protein p140 [5]; 3 min) | Amount of tyrosine phosphorylated p140 (protein p140 [5]; 10 min) | Amount of tyrosine phosphorylated p140 (protein p140 [5]; 60 min) | Activity on glucose uptake (Rat L6 cells) | other results
1 | Insulin | 350 copy/cell | 1850 copy/cell | 2600 copy/cell | 1650 copy/cell | 106.8 pmol/mg protein/min | p140 tyrosine phosphorylation (band content of pp140) (protein p140 [1]; insulin 100 nM for 10 min): 2400; p140 tyrosine phosphorylation (band content of pp140) (protein p140 [1]; insulin 100 nM for 60 min): 1000; p140 tyrosine phosphorylation (band content of pp140) (protein p140 [2]; insulin 100 nM for 10 min): 2000; p140 tyrosine phosphorylation (band content of pp140) (protein p140 [2]; insulin 100 nM for 60 min): 1400; p140 tyrosine phosphorylation (band content of pp140) (protein p140 [3]; insulin 100 nM for 10 min): 2500; p140 tyrosine phosphorylation (band content of pp140) (protein p140 [3]; insulin 100 nM for 60 min): 1900; p140 tyrosine phosphorylation (band content of pp140) (protein p140 [4]; insulin 100 nM for 10 min): 2100; p140 tyrosine phosphorylation (band content of pp140) (protein p140 [4]; insulin 100 nM for 60 min): 1200
2 | CC1=CC(=O)c2ccccc2C1=O [Vitamin K3, 2-methyl-1,4-naphthoquinone] | 350 copy/cell | 3650 copy/cell | 1800 copy/cell | 750 copy/cell | 60.9 pmol/mg protein/min | 
3 | amylin |  |  |  |  |  | Effect on insulin-induced incidence of pp140 (protein p140 [1]; rat L6 cells incubated with insulin within 10 min): antagonized; Effect on insulin-induced incidence of pp140 (protein p140 [2]; rat hepatocytes, FaO cells): similarly confirmed; Effect on insulin-induced incidence of pp140 (protein p140 [3]; human muscle cells (A673 cells)): similarly confirmed; Effect on insulin-induced incidence of pp140 (protein p140 [4]; human hepatocytes (HepG2 cells)): similarly confirmed; glucose transporter 4 (Glut 4) quantity (healthy rats): decreases; increase in the blood glucose content (healthy rats): 1.7 fold; insulin receptor population (healthy rats): dramatic decreases; secreted insulin quantity (healthy rats): dramatic decreases; synthesized glycogen content, decrease compared to control group (healthy rats): less than 50%; glucose uptake in the cells (L6 cells): decreased glucose uptake
4 | CC(C)CCOc1ccc(C=C2SC(=S)NC2=O)cc1 [5-(4-isoamyloxybenzylidene)rhodanine] | 400 copy/cell | 3200 copy/cell | 2250 copy/cell | 1600 copy/cell | 98.4 pmol/mg protein/min | 
5 | Cc1cc(N)c2ccccc2c1O [Vitamin K5, 4-amino-2-methyl-1-naphthol] | 400 copy/cell | 3850 copy/cell | 2850 copy/cell | 1600 copy/cell | 67.5 pmol/mg protein/min | cholesterol content in blood [6]: elicited recovery of changes; glucose content in blood [6]: elicited recovery of changes; neutral fat content in blood [6]: elicited recovery of changes
6 | O=C1NC(=S)SC1c1ccccc1 (stereo not shown) [5-phenylrhodanine] | 350 copy/cell | 1600 copy/cell | 1250 copy/cell | 650 copy/cell | 76.8 pmol/mg protein/min | 
